Values after ≈ are worked out from the molar mass of the structure shown. Where a SMILES comes first, the peptide text is derived from it.
Columns and labels:
pepsin = assay: Remaining amount by RP-HPLC after pepsin treatment; format: in vitro ADME; conditions: pepsin (isolated protease); pepsin treated for 3 h; read-out RP-HPLC; Table S2
Procedure: (§3) To test whether the variants were tolerant to trypsin or other digestive enzymes, the amount of the remaining McC and its analogues remaining was determined by RP-HPLC after trypsin, pepsin, and chymotrypsin treated for 3 h (Table S2), and the inhibition zones of trypsin-treated variants were tested using the same method (Table 2).

E. coli K88 = assay: microbe, parasite or virus in culture; format: cell-based; conditions: agar diffusion; for bacteriostatic effect on indicator strain K88: fermentation supernatant, not trypsin-treated; for antimicrobial activity after trypsin treatment, K88 / Diameters of the inhibition zones, Trypsin-Treated Group, K88: supernatant treated with trypsin 50 μg/mL, 37 °C, 3 h; for Diameters of the inhibition zones, Trypsin-Untreated Group, K88: 200 μL fermentation supernatant, 1 × 10^5 CFU/mL, 4 °C 1 h then 37 °C 24 h, chloramphenicol 100 μL of 0.25 μg/mL; for Diameters of the inhibition zones, Trypsin-Untreated Group, K88 / Diameters of the inhibition zones, Trypsin-Treated Group, K88: dash = no zone; for Diameters of the inhibition zones, Trypsin-Treated Group, K88: pH 6.8, 37 °C 24 h
Procedure: (§1) The pH was adjusted to 6.8.
(§2) The fermentation supernatants and pure products were used to characterize the bacteriostatic effects of McC variants by the agar diffusion and microdilution methods. Yej^+rimL^− and E. coli K88 indicator bacteria were applied. The serotype of E. coli K88 was O149:K91, K88ac, a clinically isolated strain, and provided by the College of Veterinary Medicine, China Agricultural University. The indicated bacteria were diluted to 1 × 10^5 CFU/mL and added to plate medium cooled to 50 °C. Two hundred microliters of supernatants were added to each dish, and diffusion was performed at 4 °C for 1 h. After incubation at 37 °C for 24 h, the diameters of the inhibition zones were determined. One hundred microliters of 0.25 μg/mL chloramphenicol was used as a control. The MICs of the pure McC variants were determined by microdilution in a sterilized 96-well microplate. The McC variants were serially diluted 2 times in 96-well microplates with LB medium. The concentrations of the McC variants ranged from 0.125 to 100 µg/mL. Each well was inoculated with 10 μL of overnight bacterial culture at a concentration of 1.0 × 10^5 CFU/mL and incubated at 37 °C for 24 h. A microplate reader was used to automatically observe changes in absorbance at 600 nm in order to monitor bacterial growth. A positive control group (including inoculated medium) and a negative control group (with medium only) were included. The MIC was determined as the lowest concentration of McC variant that inhibited bacterial growth (preventing an increase in the absorbance reading). All tests were performed in triplicate.

chymotrypsin = assay: Remaining amount by RP-HPLC after chymotrypsin treatment; format: in vitro ADME; conditions: chymotrypsin (isolated protease); chymotrypsin treated for 3 h; read-out RP-HPLC; Table S2
Procedure: as §3

[1] = Remaining amount by RP-HPLC after pepsin treatment; format: in vitro ADME; conditions: isolated enzyme pepsin; pepsin treated for 3 h; read-out RP-HPLC; Table S2
Procedure: as §3

indicator bacteria = conditions: second to seventh codons of mccA replaced; cited from earlier work
Text: The heptapeptide precursor of McC, f-MRTGNAN, is encoded by the first gene in the mcc gene clusters, mccA [11]. Considering its protein nature, it is suitable for gene-based peptide engineering. Kazakov et al. first applied site-directed mutagenesis on the mccA gene, systematically replacing the second to seventh codons of mccA encoding 19 standard amino acids for a total of 114 mutations.

Yej^+rimL^− strain [2] = format: cell-based; conditions: HPLC-purified variants; microdilution in LB, 96-well; 0.125 to 100 µg/mL; 1.0 × 10^5 CFU/mL; 37 °C 24 h; absorbance 600 nm; triplicate
Procedure: To accurately characterize the bacteriostatic abilities of the variants, the MICs of the pure McC variants toward the McCsensitive strain Yej^+rimL^− were determined. The MICs of all variants were lower than that of wild-type McC. From smallest to largest MIC, the above five variants were in the following order: R2A, R2T, R2Q, R2S, and R2H. […] Although the diameter of the inhibitory zone of R2M was smaller than those of the above five variants, the bacteriostatic ability of R2M was second only to R2T/R2Q, and the MIC was 50 μg/mL.
as §2

[3] = Remaining amount by RP-HPLC after chymotrypsin treatment; format: in vitro ADME; conditions: isolated enzyme chymotrypsin; chymotrypsin treated for 3 h; read-out RP-HPLC; Table S2
Procedure: as §3

[4] = HPLC retention time according to hydrophobicity; format: physicochemical; conditions: chromatographic, C18 5 μm 9.4 × 250 mm; A 0.1% trichloroacetic acid, B 0.1% trichloroacetic acid with 90% acetonitrile; linear 5% B to 50% B; 1 mL/min; 35 °C; 280 nm; varies according to hydrophobicity
Procedure: To find the separation peaks of the variants, wildtype McC and blank control fermentation broth samples were tested by HPLC. The separation peaks with obvious differences (those with retention times of 11 min and 17 min) were purified and the antimicrobial activity was determined. […] Therefore, the molecular weight was further analyzed by mass spectrometry, and the separation peak at approximately 17 min was confirmed to be that of the desired purified McC. Since the mutations in this study involved only one amino acid and had few effects on the properties of the peptides, we predicted that the separation peaks of the variants should fluctuate around approximately 17 min according to their hydrophobicity. […] The purity of the purified variants was determined by HPLC to be greater than 80% (Table 3).
The lyophilized supernatants were dissolved in deionized water, filtered through 0.22 μm aqueous-phase filter membranes, and purified by high-performance liquid chromatography (HPLC, Agilent Technologies Inc., Palo Alto, CA, USA) with C18 column (5 μm 9.4 × 250 mm, Agilent Technologies Inc., Palo Alto, CA, USA). The mobile phase was composed of 0.1% (v/v) trichloroacetic acid (solvent A) and 0.1% (v/v) trichloroacetic acid with 90% (v/v) acetonitrile (solvent B). A linear gradient from 95% A/5% B to 50% A/50% B was used with a flow rate of 1 mL/min, a sample volume of 10 μL, a column temperature of 35 °C, and a detection wavelength of 280 nm. Electrospray ionization mass spectrometry (ESI-MS) was used to compare the McC variant masses with the expected masses. The relationships between the relative abundances and the mass-to-charge ratios (m/z) of the ions were determined to confirm the identities of the experimentally produced McC variants.

Yej^+rimL^− strain [5] = assay: organism not typed; format: cell-based; conditions: agar diffusion; for bacteriostatic activity after trypsin treatment, Yej^+rimL^− / Diameters of the inhibition zones, Trypsin-Treated Group, Yej^+rimL^−: supernatant treated with trypsin 50 μg/mL, 37 °C, 3 h; for Diameters of the inhibition zones, Trypsin-Untreated Group, Yej^+rimL^−: 200 μL fermentation supernatant, 1 × 10^5 CFU/mL, 4 °C 1 h then 37 °C 24 h, chloramphenicol 100 μL of 0.25 μg/mL; for Diameters of the inhibition zones, Trypsin-Untreated Group, Yej^+rimL^− / Diameters of the inhibition zones, Trypsin-Treated Group, Yej^+rimL^−: dash = no zone; for Diameters of the inhibition zones, Trypsin-Treated Group, Yej^+rimL^−: pH 6.8, 37 °C 24 h
Text: To analyze the antimicrobial ability of the variants, we measured the inhibition zones of all 21 variants by the agar diffusion method. The peptide moiety of McC was recognized by a YejABEf-peptide transporter. The rimL contains an acetyltransferase domain homologous to MccE which can detoxify and provide resistance to McC [17]. The overexpression of the YejABEF gene cluster and rimL gene knockout made the strain hypersensitive to McC. Therefore, the Yej^+rimL^− strain was selected as the sensitive indicator bacterial strain.
as §1, §2

Compound	remaining at 3 h (pepsin) [%]	bacteriostatic effect on indicator strain K88 (E. coli K88)	remaining at 3 h (chymotrypsin) [%]	remaining at 3 h [1] [%]	antimicrobial activity of mccA substitution variants (indicator bacteria)	MIC (Yej^+rimL^− strain [2]) [µg/mL]	antimicrobial activity after trypsin treatment, K88 (E. coli K88)	Diameters of the inhibition zones, Trypsin-Untreated Group, K88 (E. coli K88) [mm]	Diameters of the inhibition zones, Trypsin-Treated Group, K88 (E. coli K88) [mm]	remaining at 3 h [3] [%]	Retention Time [4] [min]	bacteriostatic activity after trypsin treatment, Yej^+rimL^− (Yej^+rimL^− strain [5])	Diameters of the inhibition zones, Trypsin-Untreated Group, Yej^+rimL^− (Yej^+rimL^− strain [5]) [mm]	Diameters of the inhibition zones, Trypsin-Treated Group, Yej^+rimL^− (Yej^+rimL^− strain [5]) [mm]
CSCC[C@H](NC=O)C(=O)N[C@@H](CS)C(=O)N[C@H](C(=O)NCC(=O)N[C@@H](CC(N)=O)C(=O)N[C@@H](C)C(=O)N[C@@H](CC(=O)O)C(=O)NP(=O)(OCCCN)OC[C@H]1O[C@@H](n2cnc3c(N)ncnc32)[C@H](O)[C@@H]1O)[C@@H](C)O (stereo partly shown) [R2C] (HELM PEPTIDE1{[O=C[*:2]].M.C.T.G.N.A.[NCCCOP(=O)(NC(=O)[C@H](CC(=O)O)N[*:1])OC[C@H]1O[C@@H](n2cnc3c(N)ncnc32)[C@H](O)[C@@H]1O]}$$$$V2.0)	82.5 ± 0.98	no bacteriostatic effects	40.9 ± 1.22	–	–	–	–	–	–	–	–	–	–	–
CSCC[C@H](NC=O)C(=O)N[C@@H](CCC(=O)O)C(=O)N[C@H](C(=O)NCC(=O)N[C@@H](CC(N)=O)C(=O)N[C@@H](C)C(=O)N[C@@H](CC(=O)O)C(=O)NP(=O)(OCCCN)OC[C@H]1O[C@@H](n2cnc3c(N)ncnc32)[C@H](O)[C@@H]1O)[C@@H](C)O (stereo partly shown) [R2E] (HELM PEPTIDE1{[O=C[*:2]].M.E.T.G.N.A.[NCCCOP(=O)(NC(=O)[C@H](CC(=O)O)N[*:1])OC[C@H]1O[C@@H](n2cnc3c(N)ncnc32)[C@H](O)[C@@H]1O]}$$$$V2.0)	90.72 ± 0.74	no bacteriostatic effects	38.4 ± 0.97	–	–	–	–	–	–	–	–	–	–	–
CSCC[C@H](NC=O)C(=O)N[C@@H](Cc1c[nH]cn1)C(=O)N[C@H](C(=O)NCC(=O)N[C@@H](CC(N)=O)C(=O)N[C@@H](C)C(=O)N[C@@H](CC(=O)O)C(=O)NP(=O)(OCCCN)OC[C@H]1O[C@@H](n2cnc3c(N)ncnc32)[C@H](O)[C@@H]1O)[C@@H](C)O (stereo partly shown) [R2H] (HELM PEPTIDE1{[O=C[*:2]].M.H.T.G.N.A.[NCCCOP(=O)(NC(=O)[C@H](CC(=O)O)N[*:1])OC[C@H]1O[C@@H](n2cnc3c(N)ncnc32)[C@H](O)[C@@H]1O]}$$$$V2.0)	–	–	–	82.29 ± 0.52	bacteriostatic	>100	retained their antimicrobial activity	15.55	11.99	42.7 ± 0.69	16.872	exhibited antibacterial effects	18.39	15.92
CSCC[C@H](NC=O)C(=O)N[C@@H](CCSC)C(=O)N[C@H](C(=O)NCC(=O)N[C@@H](CC(N)=O)C(=O)N[C@@H](C)C(=O)N[C@@H](CC(=O)O)C(=O)NP(=O)(OCCCN)OC[C@H]1O[C@@H](n2cnc3c(N)ncnc32)[C@H](O)[C@@H]1O)[C@@H](C)O (stereo partly shown) [R2M] (HELM PEPTIDE1{[O=C[*:2]].M.M.T.G.N.A.[NCCCOP(=O)(NC(=O)[C@H](CC(=O)O)N[*:1])OC[C@H]1O[C@@H](n2cnc3c(N)ncnc32)[C@H](O)[C@@H]1O]}$$$$V2.0)	–	–	–	88.7 ± 0.93	loss of antimicrobial activity	50 (≈ 43.4 µM)	–	12.37	–	43.8 ± 0.68	19.622	exhibited antibacterial effects	21.57	14.31
CSCC[C@H](NC=O)C(=O)N[C@@H](CC(N)=O)C(=O)N[C@H](C(=O)NCC(=O)N[C@@H](CC(N)=O)C(=O)N[C@@H](C)C(=O)N[C@@H](CC(=O)O)C(=O)NP(=O)(OCCCN)OC[C@H]1O[C@@H](n2cnc3c(N)ncnc32)[C@H](O)[C@@H]1O)[C@@H](C)O (stereo partly shown) [R2N] (HELM PEPTIDE1{[O=C[*:2]].M.N.T.G.N.A.[NCCCOP(=O)(NC(=O)[C@H](CC(=O)O)N[*:1])OC[C@H]1O[C@@H](n2cnc3c(N)ncnc32)[C@H](O)[C@@H]1O]}$$$$V2.0)	88.79 ± 0.88	no bacteriostatic effects	37.7 ± 1.1	–	–	–	–	–	–	–	–	–	–	–
CSCC[C@H](NC=O)C(=O)N1CCC[C@H]1C(=O)N[C@H](C(=O)NCC(=O)N[C@@H](CC(N)=O)C(=O)N[C@@H](C)C(=O)N[C@@H](CC(=O)O)C(=O)NP(=O)(OCCCN)OC[C@H]1O[C@@H](n2cnc3c(N)ncnc32)[C@H](O)[C@@H]1O)[C@@H](C)O (stereo partly shown) [R2P] (HELM PEPTIDE1{[O=C[*:2]].M.P.T.G.N.A.[NCCCOP(=O)(NC(=O)[C@H](CC(=O)O)N[*:1])OC[C@H]1O[C@@H](n2cnc3c(N)ncnc32)[C@H](O)[C@@H]1O]}$$$$V2.0)	86.9 ± 1.24	no bacteriostatic effects	42.8 ± 0.76	–	–	–	–	–	–	–	–	–	–	–
CSCC[C@H](NC=O)C(=O)N[C@@H](CO)C(=O)N[C@H](C(=O)NCC(=O)N[C@@H](CC(N)=O)C(=O)N[C@@H](C)C(=O)N[C@@H](CC(=O)O)C(=O)NP(=O)(OCCCN)OC[C@H]1O[C@@H](n2cnc3c(N)ncnc32)[C@H](O)[C@@H]1O)[C@@H](C)O (stereo partly shown) [R2S] (HELM PEPTIDE1{[O=C[*:2]].M.S.T.G.N.A.[NCCCOP(=O)(NC(=O)[C@H](CC(=O)O)N[*:1])OC[C@H]1O[C@@H](n2cnc3c(N)ncnc32)[C@H](O)[C@@H]1O]}$$$$V2.0)	–	–	–	84.33 ± 0.77	bacteriostatic	100 (≈ 90.2 µM)	retained their antimicrobial activity	13.46	9.44	41.3 ± 1.27	17.004	exhibited antibacterial effects	17.35	16.34

— article PMC10525924, “Engineering and Purification of Microcin C7 Variants Resistant to Trypsin and Analysis of Their Biological Activity” (Antibiotics, 2023)
